Measured values taken from the CombiSolv-Exp solvation set (Vermeire and Green 2021).

Test: solvent given as SMILES

CCOC=O
Details	solvation free energy, 298 K [kcal/mol]
in C=CCCCCCCCCCCCCCC	-2.62
in CC(C)O	-3.15
in CCC(C)=O	-3.71
in CCCCCCCCCCCCCCCC	-2.55
in CCCCCCCCO	-2.98
in ClC(Cl)(Cl)Cl	-3.33
in ClC(Cl)Cl	-4.37
in O	-2.64
in [2H]O[2H]	-2.64

CCOC(=O)CC
Details	solvation free energy, 298 K [kcal/mol]
in CCCCCCCC	-4.11
in CCCCCCCCCCCCCCCC	-3.91
in CCCCCCCCO	-4.3
in CCOCCO	-4.58
in CN1CCCC1=O	-4.49
in O	-2.7
in O=CN1CCOCC1	-4.3
in [2H]O[2H]	-2.8

CC1=CCC(C(C)C)=CC1
Details	solvation free energy, 298 K [kcal/mol]
in O	-0.03

ICI
Details	solvation free energy, 298 K [kcal/mol]
in O	-2.49

CCCOCCO
Details	solvation free energy, 298 K [kcal/mol]
in O	-6.4

O=C(O)CCCC(=O)O
Details	solvation free energy, 298 K [kcal/mol]
in O	-12.7
in O=C1CCCCC1	-12.1

Clc1ccc2c(c1)Oc1ccc(Cl)cc1O2
Details	solvation free energy, 298 K [kcal/mol]
in O	-3.67

CCCC(C)=O
Details	solvation free energy, 298 K [kcal/mol]
in CC(C)CC(C)(C)C	-4.14
in CC(C)CCCC(C)CCCC(C)CCCCC(C)CCCC(C)CCCC(C)C	-3.72
in CCCCCCC	-4.07
in CCCCCCCC	-3.87
in CCCCCCCCCC	-3.93
in CCCCCCCCCCCCCCCC	-3.74
in CCCCCCCCO	-4.35
in CCN1CCCC1=O	-4.86
in CCN(CC)C(C)=O	-4.91
in CCNC(C)=O	-4.61
in CCNC=O	-4.69
in CN1CCCC1=O	-4.73
in CN1CCCCC1=O	-4.83
in CNC=O	-4.69
in CO	-4.88
in NC=O	-4.12
in O	-3.46
in O=CN1CCOCC1	-4.52
in [2H]O[2H]	-3.38

Clc1ccc(-c2ccc(Cl)cc2)cc1
Details	solvation free energy, 298 K [kcal/mol]
in CCCCCCCCC=CCCCCCCCC(=O)OCC(COC(=O)CCCCCCCC=CCCCCCCCC)OC(=O)CCCCCCCC=CCCCCCCCC	-10.9
in CCCCCCCCO	-10.7
in O	-2.91

[HH]
Details	solvation free energy, 298 K [kcal/mol]
in Brc1ccccc1	1.77
in C1CCNC1	1.62
in C1CCNCC1	1.63
in C1CCOC1	1.46
in C1COCCO1	1.76
in C=CCCCCCC	1.36
in C=CCCCCCCC=C	1.6
in CC1COC(=O)O1	2.04
in CC#N	1.45
in CC(=O)OCC(C)C	1.49
in CC(C)(C)O	1.49
in CC(C)=O	1.38
in CC(C)CC(C)(C)C	1.28
in CC(C)CCO	1.76
in CC(C)CO	1.53
in CC(C)N	1.3
in CC(C)O	1.45
in CCC(C)=O	1.45
in CCC(C)O	1.56
in CCCCC(CC)CO	1.64
in CCCCCC	1.24
in CCCCCCC	1.29
in CCCCCCCC	1.35
in CCCCCCCCCC	1.49
in CCCCCCCCCCCCO	1.9
in CCCCCCCCCCO	1.83
in CCCCCCCCCO	1.8
in CCCCCCO	1.61
in CCCCCO	1.64
in CCCCCOC(C)=O	1.91
in CCCCN(CCCC)CCCC	1.53
in CCCCNCCCC	1.48
in CCCCO	1.56
in CCCCOC(C)=O	1.5
in CCCCOCCCC	1.42
in CCCCOCCO	1.67
in CCCN	1.35
in CCCO	1.52
in CCN	1.24
in CCN(CC)CC	1.33
in CCO	1.47
in CCOC(C)=O	1.46
in CCOCC	1.15
in CCOCCO	1.7
in CN1CCCC1	1.38
in CN1CCCC1=O	1.98
in CN(C)C=O	1.84
in CN(C)CCCN	1.63
in CO	1.35
in COC(C)=O	1.42
in COCCO	1.84
in Cc1cccc(C)c1	1.49
in Cc1ccccc1	1.62
in ClC(Cl)(Cl)Cl	1.51
in ClC(Cl)Cl	1.61
in ClCCCl	1.72
in ClCCl	1.57
in Clc1ccccc1	1.65
in NCCCN	2.05
in NCCN	2.15
in O=C1CCCC1	1.72
in O=C1CCCCC1	1.75
in OCCO	2.38
in c1ccccc1	1.58

CCCCCl
Details	solvation free energy, 298 K [kcal/mol]
in C1CCOC1	-4.57
in C1CCOCC1	-4.52
in C1COCCO1	-4.4
in C=CCCCCCCCCCCCCCC	-3.77
in CC(C)(C)O	-3.7
in CC(C)=O	-4.26
in CC(C)CC(C)(C)C	-3.91
in CC(C)CO	-3.72
in CC(C)OC(C)C	-4.21
in CCC(C)O	-3.72
in CCCBr	-4.49
in CCCCCC	-4.05
in CCCCCCC	-3.96
in CCCCCCCCC=CCCCCCCCC(=O)OCC(COC(=O)CCCCCCCC=CCCCCCCCC)OC(=O)CCCCCCCC=CCCCCCCCC	-3.93
in CCCCCCCCCCCCCCCC	-3.68
in CCCCCCCCCCO	-3.67
in CCCCCCCCO	-3.71
in CCCCOC	-4.37
in CCCCOCCCC	-4.11
in CCCO	-3.59
in CCCOCCC	-4.23
in CCI	-4.43
in CCOC(C)=O	-4.31
in CCOCC	-4.38
in COC(C)(C)C	-4.3
in ClC(Cl)(Cl)Cl	-4.31
in ClCCCl	-4.43
in Clc1ccccc1	-4.35
in O	-0.23
in [2H]O[2H]	-0.73

CCCCCC(=O)OC
Details	solvation free energy, 298 K [kcal/mol]
in CCCCCC	-5.65
in CCCCCCC	-5.63
in CCCCCCCC	-5.55
in CCCCCCCCCC	-5.48
in CO	-5.84
in O	-2.5

COC(CCl)(OC)OC
Details	solvation free energy, 298 K [kcal/mol]
in O	-4.59

Cc1cc2ccccc2cc1C
Details	solvation free energy, 298 K [kcal/mol]
in CCCCCCCCC=CCCCCCCCC(=O)OCC(COC(=O)CCCCCCCC=CCCCCCCCC)OC(=O)CCCCCCCC=CCCCCCCCC	-8.95
in O	-2.72

O=C(O)c1ccc2ccccc2c1
Details	solvation free energy, 298 K [kcal/mol]
in C=CCCCCCCC=C	-9.58
in C=CCCCCCCCCCCCCCC	-9.37
in O	-8.54

CCCCOC(=O)c1ccc(O)cc1
Details	solvation free energy, 298 K [kcal/mol]
in O	-8.72

Cc1ccc(CO)cc1
Details	solvation free energy, 298 K [kcal/mol]
in O	-7.12

COc1ccc(CCN)cc1
Details	solvation free energy, 298 K [kcal/mol]
in C=CCCCCCCC=C	-9.4
in O	-8.51

C=CC#N
Details	solvation free energy, 298 K [kcal/mol]
in O	-3.34

CCCOC
Details	solvation free energy, 298 K [kcal/mol]
in O	-1.66

O=[N+]([O-])c1cccc(Cl)c1
Details	solvation free energy, 298 K [kcal/mol]
in O	-4.45

C=CCCCC
Details	solvation free energy, 298 K [kcal/mol]
in C1CCC2CCCCC2C1	-3.67
in C1CCC(C2CCCCC2)CC1	-3.65
in C=CCCCCCCCCCCCCCC	-3.48
in CC#N	-2.96
in CC(C)CC(C)(C)C	-3.78
in CCC#N	-3.49
in CCCC#N	-3.2
in CCCCC(CC)COC(=O)CCCCC(=O)OCC(CC)CCCC	-3.36
in CCCCC(CC)COC(=O)c1ccccc1C(=O)OCC(CC)CCCC	-3.18
in CCCCCCC	-3.83
in CCCCCCCCC=CCCCCCCCC(=O)OCC(COC(=O)CCCCCCCC=CCCCCCCCC)OC(=O)CCCCCCCC=CCCCCCCCC	-3.41
in CCCCCCCCCCCCCCCC	-3.51
in CCCCCCCCO	-3.29
in CCCCCO	-3.3
in CCCCO	-3.22
in CCCCOC(=O)c1ccccc1C(=O)OCCCC	-3.37
in CCN1CCCC1=O	-3.11
in CCN(CC)C(C)=O	-3.26
in CCNC(C)=O	-3.04
in CCNC=O	-2.85
in CCOC(=O)c1ccccc1C(=O)OCC	-2.96
in CN1CCCC1=O	-2.91
in CN1CCCCC1=O	-3.06
in CN1CCN(C)C1=O	-2.83
in CN(C)C=O	-2.96
in CNC=O	-2.55
in COC(C)=O	-3.51
in CS(C)=O	-2.1
in Cc1cccc(C)c1	-3.74
in N#CCCCCC#N	-2.31
in N#Cc1ccccc1	-3.15
in NC=O	-0.91
in NCCO	-1.17
in Nc1ccccc1	-2.68
in O	1.58
in O=C1CCCO1	-2.49
in O=CN1CCOCC1	-2.37
in O=Cc1ccco1	-2.62
in OCCO	-1.11
in OCCOCCO	-1.73
in OCCOCCOCCO	-1.83
in OCCOCCOCCOCCO	-1.94
in OCc1ccco1	-2.53
in c1ccc2c(c1)CCCC2	-3.69
in c1ccc(C2CCCCC2)cc1	-3.63

NC(N)=O
Details	solvation free energy, 298 K [kcal/mol]
in O	-13.6

O=C(OC1CCCCC1)c1ccccc1C(=O)OC1CCCCC1
Details	solvation free energy, 298 K [kcal/mol]
in O	-9.07

O=C(OCc1ccccc1)c1ccccc1C(=O)OCc1ccccc1
Details	solvation free energy, 298 K [kcal/mol]
in O	-11.3

CNC(=O)Oc1cccc2c1OC(C)(C)C2
Details	solvation free energy, 298 K [kcal/mol]
in O	-9.61

N#CCCOCCC#N
Details	solvation free energy, 298 K [kcal/mol]
in CCCCCCC	-7.82

COc1ccccc1O
Details	solvation free energy, 298 K [kcal/mol]
in O	-5.67

CCCCN(CC)N=O
Details	solvation free energy, 298 K [kcal/mol]
in CC(C)CC(C)(C)C	-6.49
in O	-5.25

Cc1cc(O)ccc1[N+](=O)[O-]
Details	solvation free energy, 298 K [kcal/mol]
in CCCCOCCCC	-12.1
in O	-9.89
